In ChEMBL document CHEMBL3091444, “5-Chlorothiophene-2-carboxylic acid [(S)-2-[2-methyl-3-(2-oxopyrrolidin-1-yl)benzenesulfonylamino]-3-(4-methylpiperazin-1-yl)-3-oxopropyl]amide (SAR107375), a selective and potent orally active dual thrombin and factor Xa inhibitor” (J Med Chem, 2013):

Key:
[1] = Metabolic stability in human liver microsomes at 5 uM after 20 mins; format: ADME; settings: read-out: Stability
[2] = Metabolic stability in Sprague-Dawley rat liver microsomes at 5 uM after 20 mins; format: ADME; settings: read-out: Stability
[3] = Metabolic stability in Swiss CD1 mouse liver microsomes at 5 uM after 20 mins; format: ADME, Microsome; settings: read-out: Stability
[4] = Cmax in Sprague-Dawley rat at 10 mg/kg, po; format: ADME, organism-based; parameters: dose 10 mg/kg, route oral; settings: in vivo
[5] = Clearance in Sprague-Dawley rat at 3 mg/kg, iv; format: ADME, organism-based; parameters: dose 3 mg/kg, route intravenous; settings: in vivo
[6] = AUC in Sprague-Dawley rat at 3 mg/kg, iv; format: ADME, organism-based; parameters: dose 3 mg/kg, route intravenous; settings: plasma
[7] = Half life in Sprague-Dawley rat at 3 mg/kg, iv; format: ADME, organism-based; parameters: dose 3 mg/kg, route intravenous; settings: in vivo
[8] = Cmax in dog at 3 mg/kg, iv; format: ADME, organism-based, Canis lupus familiaris; parameters: dose 3 mg/kg, route intravenous; settings: in vivo
[9] = Half life in dog at 10 mg/kg, po; format: ADME, organism-based, Canis lupus familiaris; parameters: dose 10 mg/kg, route oral; settings: in vivo
[10] = Clearance in dog at 3 mg/kg, iv; format: ADME, organism-based, Canis lupus familiaris; parameters: dose 3 mg/kg, route intravenous; settings: in vivo
[11] = AUC in dog at 10 mg/kg, po; format: ADME, organism-based, Canis lupus familiaris; parameters: dose 10 mg/kg, route oral; settings: plasma
[12] = Cmax in Sprague-Dawley rat at 3 mg/kg, iv; format: ADME, organism-based; parameters: dose 3 mg/kg, route intravenous; settings: in vivo
[13] = Cmax in dog at 10 mg/kg, po; format: ADME, organism-based, Canis lupus familiaris; parameters: dose 10 mg/kg, route oral; settings: in vivo
[14] = AUC in Sprague-Dawley rat at 10 mg/kg, po; format: ADME, organism-based; parameters: dose 10 mg/kg, route oral; settings: plasma
[15] = Tmax in Sprague-Dawley rat at 10 mg/kg, po; format: ADME, organism-based; parameters: dose 10 mg/kg, route oral; settings: in vivo
[16] = Tmax in dog at 10 mg/kg, po; format: ADME, organism-based, Canis lupus familiaris; parameters: dose 10 mg/kg, route oral; settings: in vivo
[17] = Oral bioavailability in Sprague-Dawley rat at 10 mg/kg; format: ADME, organism-based; settings: in vivo
[18] = Half life in dog at 3 mg/kg, iv; format: ADME, organism-based, Canis lupus familiaris; parameters: dose 3 mg/kg, route intravenous; settings: in vivo
[19] = Volume of distribution at steady state in dog at 3 mg/kg, iv; format: ADME, organism-based, Canis lupus familiaris; parameters: dose 3 mg/kg, route intravenous; settings: in vivo, read-out: Vdss
[20] = Volume of distribution at steady state in Sprague-Dawley rat at 3 mg/kg, iv; format: ADME, organism-based; parameters: dose 3 mg/kg, route intravenous; settings: in vivo, read-out: Vdss
[21] = Half life in Sprague-Dawley rat at 10 mg/kg, po; format: ADME, organism-based; parameters: dose 10 mg/kg, route oral; settings: in vivo
[22] = AUC in dog at 3 mg/kg, iv; format: ADME, organism-based, Canis lupus familiaris; parameters: dose 3 mg/kg, route intravenous; settings: plasma
[23] = Oral bioavailability in dog at 10 mg/kg; format: ADME, organism-based, Canis lupus familiaris; settings: in vivo
Liver microsome = assay: Drug metabolism in human liver microsomes assessed as oxidation; format: ADME
[24] = Permeability of the compound across human Caco2 cells; format: ADME, cell-based; settings: Caco-2, read-out: permeability

remaining at 20 min, 5 µM [1]	remaining at 20 min, 5 µM [2]	remaining at 20 min, 5 µM [3]	Structure (SMILES)	other results
99%	99%	98%	CCc1c(N2CCOCC2=O)cccc1S(=O)(=O)N[C@@H](CNC(=O)c1ccc(Cl)s1)C(=O)N1CCC(OC)CC1	
59%	54%	45%	CN1CCN(C(=O)[C@H](CNC(=O)c2ccc(Cl)s2)NS(=O)(=O)c2cccc(N3CCCC3=O)c2Cl)CC1	
74%	58%	91%	Cc1c(N2CCOCC2=O)cccc1S(=O)(=O)N[C@@H](CNC(=O)c1ccc(Cl)s1)C(=O)N1CCOC[C@@H]1C	
52%	0%	26%	Cc1c(N2CCOCC2=O)cccc1S(=O)(=O)N[C@@H](CNC(=O)c1ccc(Cl)s1)C(=O)N1CCN(C)CC1	
99%	99%	99%	CCc1c(N2CCOCC2=O)cccc1S(=O)(=O)N[C@@H](CNC(=O)c1ccc(Cl)s1)C(=O)N1CCOC[C@@H]1C	
34%	25%	25%	Cc1c(N2CCCC2=O)cccc1S(=O)(=O)N[C@@H](CNC(=O)c1ccc(Cl)s1)C(=O)N1CCN(C)CC1.Cl	Cmax [4]: 154 ng/mL; clearance [5]: 96.7 mL/min/kg; AUC [6]: 510 ng·h/mL; half-life [7]: 396 min; Cmax [8]: 3500 ng/mL; half-life [9]: 144 min; clearance [10]: 28.3 mL/min/kg; AUC [11]: 2600 ng·h/mL; Cmax [12]: 1300 ng/mL; Cmax [13]: 1530 ng/mL; AUC [14]: 360 ng·h/mL; Tmax [15]: 15 min; Tmax [16]: 30 min; bioavailability [17]: 21%; half-life [18]: 66 min; Vd [19]: 1.5 L/kg; Vd [20]: 4.6 L/kg; half-life [21]: 372 min; AUC [22]: 1800 ng·h/mL; bioavailability [23]: 47%
72%	63%	69%	CN1CCN(C(=O)[C@H](CNC(=O)c2ccc(Cl)s2)NS(=O)(=O)c2cccc(N3CCOCC3=O)c2Cl)CC1	
80%	51%	68%	CCc1c(N2CCOCC2=O)cccc1S(=O)(=O)N[C@@H](CNC(=O)c1ccc(Cl)s1)C(=O)N1CCC(O)CC1	
99%	65%	99%	CCc1c(-c2ccccn2)cccc1S(=O)(=O)N[C@@H](CNC(=O)c1ccc(Cl)s1)C(=O)N1CCOC[C@@H]1C	Drug metabolism (Liver microsome): Active
			Cc1c(-c2ccccn2)cccc1S(=O)(=O)N[C@@H](CCCc1ccc(N)cn1)C(=O)N1CCC(=C(F)F)CC1	Papp [24]: 9.6 ×10⁻⁶ cm/s
38%	58%	18%	O=C(NC[C@H](NS(=O)(=O)c1cccc(N2CCOCC2=O)c1Cl)C(=O)N1CCC(O)CC1)c1ccc(Cl)s1	
